For one compound, IC50 results are on record in PMC9303580, “The T1‐tetramerisation domain of Kv1.2 rescues expression and preserves function of a truncated NaChBac sodium channel” (Febs Letters, 2022).

One test has as its system T1, T1-chimera.
T1 construct: gene NaChBac; single-chain fusion: N-terminal His6 tag, human Kv1.2 T1 domain (1-145, MTV...NEF), then NaChBac TM domain printed as 9-239 (KQN...ELT; forward primer encodes QKQN, K8 is in QKQ, so start is probably Q7), CTD removed; E. coli C41(DE3); with Potassium voltage-gated channel subfamily A member 2
Description: […]+ flux assay in proteoliposomes. The settings on record: estimated; block at 45 min, POPE:POPG 3:1 liposomes, 450 mM NaCl inside, pH 7.5; pore blocker. It is filed as biochemical, Halalkalibacterium halodurans.

The target of the next test is T2, full-length NaChBac (Halalkalibacterium halodurans, UniProt Q9KCR8).
T2 construct: gene BH1501; full-length, hexa-histidine-tagged (pET-15b), expressed in E. coli C41(DE3), purified in Cymal-5, reconstituted in POPE:POPG liposomes
T2 sequence (Q9KCR8 1-274): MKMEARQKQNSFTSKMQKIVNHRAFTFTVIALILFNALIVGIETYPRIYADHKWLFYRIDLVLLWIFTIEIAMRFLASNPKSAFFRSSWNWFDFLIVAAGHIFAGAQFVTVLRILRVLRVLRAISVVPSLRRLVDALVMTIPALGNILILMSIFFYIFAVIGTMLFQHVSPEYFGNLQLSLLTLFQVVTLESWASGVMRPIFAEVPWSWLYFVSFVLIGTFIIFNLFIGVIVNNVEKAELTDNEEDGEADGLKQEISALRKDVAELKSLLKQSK
The experiment in a line: […]+ flux assay in proteoliposomes. The class given is biochemical.

Structures are written as SMILES.

As to `COCC(=O)O[C@]1(CCN(C)CCCc2nc3ccccc3[nH]2)CCc2cc(F)ccc2[C@@H]1C(C)C` [mibefradil], the IC50 in the test on T1-chimera and against full-length NaChBac was 2000 nM in each case.
